In US20010002252A1, “TOOTH WHITENING PREPARATIONS” (priority 1994, published 2001):

Experiment: Tooth whitening by brushing of extracted bovine teeth with toothpaste slurry, colorimeter L value
Experimental: Tooth whitening was measured by the following process:
Whitening was determined using a modification to a system normally employed in the dental arts for determining the abrasivity of dentifrices.
Bovine jaws were obtained at a local abattoir and the teeth were extracted in their native state; no pre-cleaning was done. Teeth were mounted in a cap with dental acrylic so as to fit the format of a colorimeter and the brushing instrument: a detailed description is given below. An initial brushing was done with a slurry of Crest Regular toothpaste and an Oral B40, medium bristle, toothbrush. Then an initial L value was determined on a colorimeter (Hunter). This was designated as the initial whiteness value. The wear tester device was manufactured by Ramè-Hart, of Mountain Lakes, N.J. This machine has often been used to test the abrasivity of dental preparations. Tooth brushes were mounted and the teeth and brushes aligned. A 1:3 slurry of paste and water was poured into the trays and brushing commenced for a total of six hours. The slurry was replaced hourly. At 3 and 6 hours L value determinations were made. This was done by first rinsing the teeth with deionized water, then placing them in a closed container at 100% humidity for 1 hours, then taking a reading on the colorimeter to obtain a 3 hour and 6 hour L value.
Toothpaste slurries were tested for their whitening effect. […]

## O=P(O)(O)OP(=O)(O)OP(=O)(O)O [STP, sodium tripolyphosphate]
10% or higher STP in Table I toothpaste base, 1:3 slurry of paste and water, brushing 6 hours, L value at 3 and 6 hours
  tooth whitening as compared with the placebo base: superior tooth whitening
STP toothpaste slurries, pH adjusted with 3M NaOH or 3M HCl
  pH at which the best whitening results were obtained: around 8.0
